{
  "source": "patent US6992100B2",
  "about": "“sPLA2 inhibitors” (Eli Lilly and Company, priority 2001, dated 2006)",
  "key": {"[1]": {"molecular_target": "T1, recombinant human secreted phospholipase A2 (Homo sapiens, UniProt P14555)", "T1 sequence (P14555 21-144)": "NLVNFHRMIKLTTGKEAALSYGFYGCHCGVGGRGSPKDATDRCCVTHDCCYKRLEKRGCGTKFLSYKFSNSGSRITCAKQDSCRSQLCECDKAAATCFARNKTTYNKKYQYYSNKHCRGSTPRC", "assay": "chromogenic assay of recombinant human secreted phospholipase A2 inhibition", "assay_type": "biochemical", "details": "diheptanoyl thio-PC substrate, pH 7.5, 40° C. 30 minutes, absorbance at 405 nanometers, triplicate", "text": "The following chromogenic assay procedure was used to identify and evaluate inhibitors of recombinant human secreted phospholipase A2. The assay described herein has been adapted for high volume screening using 96 well microtiter plates. A general description of this assay method is found in the article, “Analysis of Human Synovial Fluid Phospholipase A2 on Short Chain Phosphatidylcholine-Mixed Micelles: Development of a Spectrophotometric Assay Suitable for a Microtiterplate Reader”, by Laure J. Reynolds, Lori L. Hughes, and Edward A. Dennis, Analytical Biochemistry, 204, pp. 190–197, 1992 (the disclosure of which is incorporated herein by reference): […]\nA measured volume of racemic dipheptanoyl thio PC supplied in chloroform at a concentration of 100 mg/ml is taken to dryness and redissolved in 10 millimolar TRITON X-100™ nonionic detergent aqueous solution. […]\n5. Read absorbance of wells at 405 nanometers with an automatic plate reader.\nTests were done in triplicate. […] Compounds initially found to be active were re-assayed to confirm their activity and, if sufficiently active, IC50 values were determined. […] In all cases, % inhibition measured at 405 nanometers generated by enzyme reactions containing inhibitors relative to the uninhibited control reactions was determined. […]"}},
  "note": "Structures can show the parent of a compound that is named as a salt.",
  "data": [
    {"smiles": "NC(=O)c1cccc2c1c1c(OCC(=O)O)c3c(cc1n2Cc1ccccc1)CCCC3", "note": "[Example 2, (5-Benzyl-1-carbamoyl-7,8,9,10-tetrahydro-5H-benzo[b]carbazol-11-yloxy)-acetic acid, sodium salt]", "values": [
      {"measurement": "IC50", "setting": "[1]", "value": 410, "unit": "µM"}
    ]},
    {"smiles": "NC(=O)c1c2ccsc2nc2c1c1ccccc1n2Cc1ccccc1", "note": "[Example 3, 9-Benzyl-9H-1-thia-9,10-diaza-cyclopenta[b]fluorene-4-carboxylic acid amide]", "values": [
      {"measurement": "melting point", "value": "242 to 245", "unit": "°C"}
    ]},
    {"smiles": "NC(=O)c1cccc2c1c1c(OCC(=O)O)c3ccccc3cc1n2Cc1ccccc1", "note": "[Example 1, (5-Benzyl-1-carbamoyl-5H-benzo[b]carbazol-11-yloxy)-acetic acid, sodium salt]", "values": [
      {"measurement": "IC50", "setting": "[1]", "value": 38.6, "unit": "µM"}
    ]}
  ]
}
